Patent EP0726261A1, “Herbidical 1,2,4 thiadiazoles” (American Cyanamid Company, priority 1995, dated 1996)

Columns and labels:
Type in all cases: in vivo
[1] = system: Triticum aestivum; assay: Preemergence herbicidal activity (Example 67); parameters: herbicide rating, TRZAW: scale not given here; conditions: pre, 800 g/ha
Description: (§1) Herbicidal evaluation of compounds of the invention is conducted on the following plant species:
(§2) The soil is a prepared horticultural substrate containing 30% peat, 20% volcanic clay, 30% bark residues and 20% polyamide/styromull in a 1:3 mixture with loamy sand. Test solutions are prepared by dissolving the test compound in acetone containing 0.5% of an alkylphenol/ethylene oxide condensate under the trademark, TRITON® X-155, and diluting with water as needed. The test solutions are applied as a spray to the 3-6 week old seedling plants at dose rates corresponding to 800g/ha in a volume equivalent to 400 L/ha. A pneumatic spraying device employing a Teejet nozzle SS 8002E operating at 3 bar is used for a predetermined time. After spraying, the treated plants are placed on greenhouse benches and cared for in a manner commensurate with conventional greenhouse practice. After 10-21 days, the treated plants are evaluated and rated according to the rating system provided below.
(§3) The soil surface is then sprayed with test solutions as described in the postemergence evaluation hereinabove. After spraying, the treated cups are placed on greenhouse benches and cared for in the manner commensurate with conventional greenhouse practice. About 1-3 weeks after treatment the cups are evaluated and rated according to the rating system provided hereinabove.

[2] = system: Hordeum vulgare; assay: Preemergence herbicidal activity (Example 67); parameters: herbicide rating, HORVW: scale not given here; conditions: pre, 800 g/ha
Description: as §1, §2, §3

[3] = system: Alopecurus myosuroides; assay: Preemergence herbicidal activity (Example 67); parameters: herbicide rating, ALOMY: scale not given here; conditions: pre, 800 g/ha
Description: as §1, §2, §3

[4] = system: Setaria viridis; assay: Preemergence herbicidal activity (Example 67); parameters: herbicide rating, SETVI: scale not given here; conditions: pre, 800 g/ha
Description: as §1, §2, §3

[5] = system: Abutilon theophrasti; assay: Preemergence herbicidal activity (Example 67); conditions: pre, 800 g/ha
Description: as §1, §2, §3

[6] = system: Amaranthus retroflexus; assay: Preemergence herbicidal activity (Example 67); conditions: pre, 800 g/ha
Description: as §1, §2, §3

[7] = system: Chenopodium album; assay: Preemergence herbicidal activity (Example 67); conditions: pre, 800 g/ha
Description: as §1, §2, §3

[8] = system: Galium aparine; assay: Preemergence herbicidal activity (Example 67); conditions: pre, 800 g/ha
Description: as §1, §2, §3

[9] = system: Helianthus annuus; assay: Preemergence herbicidal activity (Example 67); conditions: pre, 800 g/ha
Description: as §1, §2, §3

[10] = system: Ipomoea hederacea; assay: Preemergence herbicidal activity (Example 67); conditions: pre, 800 g/ha
Description: as §1, §2, §3

[11] = system: Veronica persica; assay: Preemergence herbicidal activity (Example 67); conditions: pre, 800 g/ha
Description: as §1, §2, §3

[12] = system: Zea mays; assay: Preemergence herbicidal activity (Example 67); conditions: pre, 800 g/ha
Description: as §1, §2, §3

[13] = system: Abutilon theophrasti; assay: Postemergence herbicidal activity (Example 67); conditions: pos, 800 g/ha
Description: as §1, §2

[14] = system: Alopecurus myosuroides; assay: Postemergence herbicidal activity (Example 67); conditions: pos, 800 g/ha
Description: as §1, §2

[15] = system: Amaranthus retroflexus; assay: Postemergence herbicidal activity (Example 67); conditions: pos, 800 g/ha
Description: as §1, §2

[16] = system: Chenopodium album; assay: Postemergence herbicidal activity (Example 67); conditions: pos, 800 g/ha
Description: as §1, §2

[17] = system: Galium aparine; assay: Postemergence herbicidal activity (Example 67); conditions: pos, 800 g/ha
Description: as §1, §2

[18] = system: Helianthus annuus; assay: Postemergence herbicidal activity (Example 67); conditions: pos, 800 g/ha
Description: as §1, §2

[19] = system: Hordeum vulgare; assay: Postemergence herbicidal activity (Example 67); conditions: pos, 800 g/ha
Description: as §1, §2

[20] = system: Ipomoea hederacea; assay: Postemergence herbicidal activity (Example 67); conditions: pos, 800 g/ha
Description: as §1, §2

[21] = system: Setaria viridis; assay: Postemergence herbicidal activity (Example 67); conditions: pos, 800 g/ha
Description: as §1, §2

[22] = system: Triticum aestivum; assay: Postemergence herbicidal activity (Example 67); conditions: pos, 800 g/ha
Description: as §1, §2

[23] = system: Veronica persica; assay: Postemergence herbicidal activity (Example 67); conditions: pos, 800 g/ha
Description: as §1, §2

[24] = system: Zea mays; assay: Postemergence herbicidal activity (Example 67); conditions: pos, 800 g/ha
Description: as §1, §2

[25] = rated about 1-3 weeks after treatment

With CC(NC(=O)c1nc(-c2cccc(F)c2)ns1)c1cccs1 (racemic) [Example 43] the “TRZ AW rating” value [1] was 0, the “HOR VW rating” value [2] was 0 and the “ALO MY rating” value [3] was 0. For the same compound, the “SET VI rating” value [4] was 0, the “ABU TH rating” value [5] was 0 and the “AMA RE rating” value [6] was 0. For the same compound, the “CHE AL rating” value [7] was 4 (30-44%), the “GAL AP rating” value [8] was 2 (6-15%) and the “HEL AN rating” value [9] was 0. The “IPO HE rating” value [10] was 2 (6-15%), the “VER PE rating” value [11] was 2 (6-15%) and the “ZEA MX rating” value [12] was 0. For the same compound, the “ABU TH rating” value [13] was 1 (1-5%), the “ALO MY rating” value [14] was 1 (1-5%) and the “AMA RE rating” value [15] was 0. The “CHE AL rating” value [16] was 4 (30-44%), the “GAL AP rating” value [17] was 2 (6-15%) and the “HEL AN rating” value [18] was 3 (16-29%). For the same compound, the “HOR VW rating” value [19] was 2 (6-15%), the “IPO HE rating” value [20] was 2 (6-15%) and the “SET VI rating” value [21] was 3 (16-29%). For the same compound, the “TRZ AW rating” value [22] was 2 (6-15%), the “VER PE rating” value [23] was 2 (6-15%) and the “ZEA MX rating” value [24] was 0.

With CC(NC(=O)c1nsc(-c2ccc(F)cc2)n1)c1cccs1 (racemic) [Example 39] the “herbicide rating, TRZAW” value [1, 25] was 0, the “herbicide rating, HORVW” value [2, 25] was 0 and the “herbicide rating, ALOMY” value [3, 25] was 0. The “herbicide rating, SETVI” value [4, 25] was 0, the “herbicide rating, ABUTH” value [5, 25] was 0 and the “herbicide rating, AMARE” value [6, 25] was 4 (30-44%). For the same compound, the “herbicide rating, CHEAL” value [7, 25] was 0, the “herbicide rating, GALAP” value [8, 25] was 0 and the “herbicide rating, HELAN” value [9, 25] was 0. For the same compound, the “herbicide rating, IPOHE” value [10, 25] was 0, the “herbicide rating, VERPE” value [11, 25] was 0 and the “herbicide rating, ZEAMX” value [12, 25] was 0. The “herbicide rating, ABUTH” value ([13]; rated after 10-21 days) was 4 (30-44%), the “herbicide rating, ALOMY” value ([14]; rated after 10-21 days) was 3 (16-29%) and the “herbicide rating, AMARE” value ([15]; rated after 10-21 days) was 3 (16-29%). The “herbicide rating, CHEAL” value ([16]; rated after 10-21 days) was 4 (30-44%), the “herbicide rating, GALAP” value ([17]; rated after 10-21 days) was 5 (45-64%) and the “herbicide rating, HELAN” value ([18]; rated after 10-21 days) was 6 (65-79%). The “herbicide rating, HORVW” value ([19]; rated after 10-21 days) was 3 (16-29%), the “herbicide rating, IPOHE” value ([20]; rated after 10-21 days) was 4 (30-44%) and the “herbicide rating, SETVI” value ([21]; rated after 10-21 days) was 8 (91-99%). The “herbicide rating, TRZAW” value ([22]; rated after 10-21 days) was 3 (16-29%), the “herbicide rating, VERPE” value ([23]; rated after 10-21 days) was 2 (6-15%) and the “herbicide rating, ZEAMX” value ([24]; rated after 10-21 days) was 6 (65-79%).

With COc1ccc(-c2nsc(C(=O)Nc3cccc4c3CCCC4)n2)cc1 [Example 55] the “TRZ AW rating” value [1] was 0, the “HOR VW rating” value [2] was 0 and the “ALO MY rating” value [3] was 0. For the same compound, the “SET VI rating” value [4] was 0, the “ABU TH rating” value [5] was 1 (1-5%) and the “AMA RE rating” value [6] was 0. The “CHE AL rating” value [7] was 0, the “GAL AP rating” value [8] was 0 and the “HEL AN rating” value [9] was 0. The “IPO HE rating” value [10] was 3 (16-29%), the “VER PE rating” value [11] was 2 (6-15%) and the “ZEA MX rating” value [12] was 0. For the same compound, the “ABU TH rating” value [13] was 0, the “ALO MY rating” value [14] was 0 and the “AMA RE rating” value [15] was 0. For the same compound, the “CHE AL rating” value [16] was 0, the “GAL AP rating” value [17] was 3 (16-29%) and the “HEL AN rating” value [18] was 2 (6-15%). The “HOR VW rating” value [19] was 2 (6-15%), the “IPO HE rating” value [20] was 0 and the “SET VI rating” value [21] was 4 (30-44%). The “TRZ AW rating” value [22] was 1 (1-5%), the “VER PE rating” value [23] was 0 and the “ZEA MX rating” value [24] was 3 (16-29%).

In the case of CC(NC(=O)c1nc(-c2cccc(Cl)n2)ns1)c1cccs1 (racemic) [Example 47], the “TRZ AW rating” value [1] is reported as 0, the “HOR VW rating” value [2] is reported as 0 and the “ALO MY rating” value [3] is reported as 0. The “SET VI rating” value [4] was 3 (16-29%), the “ABU TH rating” value [5] was 2 (6-15%) and the “AMA RE rating” value [6] was 0. The “CHE AL rating” value [7] was 0, the “GAL AP rating” value [8] was 1 (1-5%) and the “HEL AN rating” value [9] was 0. The “IPO HE rating” value [10] was 1 (1-5%), the “VER PE rating” value [11] was 0 and the “ZEA MX rating” value [12] was 0. The “ABU TH rating” value [13] was 4 (30-44%), the “ALO MY rating” value [14] was 4 (30-44%) and the “AMA RE rating” value [15] was 1 (1-5%). The “CHE AL rating” value [16] was 4 (30-44%), the “GAL AP rating” value [17] was 4 (30-44%) and the “HEL AN rating” value [18] was 5 (45-64%). For the same compound, the “HOR VW rating” value [19] was 3 (16-29%), the “IPO HE rating” value [20] was 4 (30-44%) and the “SET VI rating” value [21] was 6 (65-79%). For the same compound, the “TRZ AW rating” value [22] was 1 (1-5%), the “VER PE rating” value [23] was 3 (16-29%) and the “ZEA MX rating” value [24] was 4 (30-44%).
